In brackets after ≈: the same amount, converted by molar mass.
What was measured:
[1] = Selectivity index, ratio of IC50 for CHOK1 cells to MIC for Mycobacterium tuberculosis H37Rv; assay type: toxicity; conditions: hamster, read-out: Selectivity Index
Pseudomonas aeruginosa = experiment: Antibacterial activity against Pseudomonas aeruginosa ATCC 27853 after 24 hrs; assay type: functional; conditions: ATCC 27853, 24 h
CHO-K1 = experiment: Cytotoxicity against CHOK1 cells after 24 hrs by MTT assay; assay type: cell-based; conditions: Cricetulus griseus, CHO-K1, 24 h
[2] = test system: Mycobacterium tuberculosis; experiment: Antitubercular activity against Mycobacterium tuberculosis H37Rv after 7 days by alamar blue assay; assay type: functional; conditions: 168 h
Staphylococcus aureus = experiment: Antibacterial activity against Staphylococcus aureus ATCC 29213 after 24 hrs; assay type: functional; conditions: ATCC 29213, 24 h
[3] = Cytotoxicity against […] B16 cells after 24 hrs by MTT assay; assay type: functional, cell-based; conditions: B16, 24 h
[4] = test system: Mycobacteroides abscessus; experiment: Antibacterial activity against Mycobacterium abscessus after 7 days by alamar blue assay; assay type: functional; conditions: 168 h
DU-145 = experiment: Cytotoxicity against human DU145 cells after 24 hrs by MTT assay; assay type: functional, cell-based; conditions: DU-145, 24 h
Klebsiella pneumoniae = experiment: Antibacterial activity against Klebsiella pneumoniae ATCC BAA-1705 after 24 hrs; assay type: functional; conditions: ATCC BAA-1705, 24 h
Mycobacteroides chelonae = experiment: Antibacterial activity against Mycobacterium chelonae after 7 days by alamar blue assay; assay type: functional; conditions: 168 h
A549 = experiment: Cytotoxicity against human A549 cells after 24 hrs by MTT assay; assay type: functional, cell-based; conditions: A549, 24 h
MCF7 = experiment: Cytotoxicity against human MCF7 cells after 24 hrs by MTT assay; assay type: functional, cell-based; conditions: MCF7, 24 h
[5] = Cytotoxicity against HEK cells after 24 hrs by MTT assay; assay type: cell-based; conditions: Homo sapiens, HEK293, 24 h
HeLa = experiment: Cytotoxicity against human HeLa cells after 24 hrs by MTT assay; assay type: functional, cell-based
Acinetobacter baumannii = experiment: Antibacterial activity against Acinetobacter baumannii ATCC BAA-1605 after 24 hrs; assay type: functional; conditions: ATCC BAA-1605, 24 h
Escherichia coli = experiment: Antibacterial activity against Escherichia coli ATCC 25922 after 24 hrs; assay type: functional; conditions: ATCC 25922, 24 h
HepG2 = experiment: Cytotoxicity against human HepG2 cells after 24 hrs by MTT assay; assay type: functional, cell-based; conditions: HepG2, 24 h
[6] = test system: Mycolicibacterium fortuitum; experiment: Antibacterial activity against Mycobacterium fortuitum after 7 days by alamar blue assay; assay type: functional; conditions: 168 h

Row | SMILES | selectivity ratio [1] | MIC (Pseudomonas aeruginosa) [µM] | IC50 (CHO-K1) [µM] | MIC [2] [µM] | MIC (Staphylococcus aureus) [µM] | IC50 [3] [µM] | MIC [4] [µM] | IC50 (DU-145) [µM] | MIC (Klebsiella pneumoniae) [µM] | MIC (Mycobacteroides chelonae) [µM] | IC50 (A549) [µM] | IC50 (MCF7) [µM] | IC50 [5] [µM] | IC50 (HeLa) [µM] | MIC (Acinetobacter baumannii) [µM] | MIC (Escherichia coli) [µM] | IC50 (HepG2) [µM] | MIC [6] [µM]
1 | Cc1ccc(N(C(=O)c2sc(C)nc2C)C(C(=O)NC2CCCCC2)c2ccccc2)cc1 (configuration not stated) | 10.9 | > 50 | 17.9 | 1.56 (≈ 0.72 µg/mL) | > 50 | 13.9 | > 50 | 14 | > 50 | > 50 | 1.48 | 3.69 | 37 | 10.7 | > 50 | > 50 | 11.8 | > 50
2 | Cc1cccc(N(C(=O)c2cccs2)C(C(=O)NC2CCCCC2)c2ccccc2)c1C (configuration not stated) | 12.2 | > 50 | 38.2 | 3.12 (≈ 1.39 µg/mL) | > 50 | 14.3 | > 50 | 9.14 | > 50 | > 50 | 17.9 | 16.9 | 22.9 | 12.7 | > 50 | > 50 | 9.63 | > 50
3 | Cc1ccc(N(C(=O)c2sc(C)nc2C)C(C(=O)NC2CCCCC2)c2ccc(Cl)cc2)cc1 (configuration not stated) | 8.9 | > 50 | 7.37 | 0.78 (≈ 0.387 µg/mL) | > 50 | 23 | > 50 | 9 | > 50 | > 50 | 10.3 | 3.19 | 11.8 | 11.9 | > 50 | > 50 | 5.33 | > 50
4 | Cc1cc(C)c(N(C(=O)c2sc(C)nc2C)C(C(=O)NC2CCCCC2)c2ccccc2)c(C)c1 (configuration not stated) | 8 | > 50 | 25.9 | 3.25 (≈ 1.59 µg/mL) | > 50 | 11.7 | > 50 | 11.7 | > 50 | > 50 | 2.75 | 3.56 | 51.2 | 10.9 | > 50 | > 50 | 6.37 | > 50
5 | Cc1ccc(N(C(=O)c2sc(C)nc2C)C(C(=O)NC2CCCCC2)c2cccc(C(F)(F)F)c2)cc1 (configuration not stated) | 6.8 |  | 42.7 | 6.25 (≈ 3.31 µg/mL) |  | 11.6 |  | 11.8 |  |  | 13.9 | 5.7 | 59.8 | 16.4 |  |  | 8.14 | 
6 | Cc1ccc(N(C(=O)c2sc(C)nc2C)C(C(=O)NC2CCCCC2)c2ccccc2)c(C)c1 (configuration not stated) | 3.4 | > 50 | 43 | 12.5 (≈ 5.95 µg/mL) | > 50 | 29.8 | > 50 | 11.4 | > 50 | > 50 | 8.63 | 11.7 | 47 | 9.43 | > 50 | > 50 | 12.6 | > 50
7 | Cc1ccc(N(C(=O)c2ccc[nH]2)C(C(=O)NC2CCCCC2)c2cccnc2)cc1 (configuration not stated) | 10.7 | > 50 | 135 | 12.5 (≈ 5.21 µg/mL) | > 50 | 18.4 | > 50 | 15.5 | > 50 | > 50 | 15.2 | 5.61 | 120 | 12 | > 50 | > 50 | 11.5 | > 50
8 | Cc1cccc(N(C(=O)c2c(C)noc2C)C(C(=O)NC2CCCCC2)c2cccnc2)c1C (configuration not stated) | 21.7 | > 50 | 137 | 6.25 (≈ 2.88 µg/mL) | > 50 | 32.7 | > 50 | 12 | > 50 | > 50 | 12.8 | 6.62 | 76.9 | 14.1 | > 50 | > 50 | 11.8 | > 50
9 | Cc1nc(C)c(C(=O)N(c2cccc(C)c2C)C(C(=O)NC2CCCCC2)c2ccc(Cl)cc2)s1 (configuration not stated) | 3.5 | > 50 | 11.4 | 3.12 (≈ 1.59 µg/mL) | > 50 | 21 | > 50 | 8.53 | > 50 | > 50 | 9.2 | 4.12 | 90.5 | 13.9 | > 50 | > 50 | 6.15 | > 50
10 | Cc1cccc(N(C(=O)c2ccc[nH]2)C(C(=O)NC2CCCCC2)c2ccncc2)c1C (configuration not stated) | 22.6 | > 50 | 142 | 6.25 (≈ 2.69 µg/mL) | > 50 | 16.6 | > 50 | 10.8 | > 50 | > 50 | 15.8 | 5.85 | 108 | 13.1 | > 50 | > 50 | 8.95 | > 50
11 | Cc1cccc(N(C(=O)c2ccc[nH]2)C(C(=O)NC2CCCCC2)c2ccccc2)c1C (configuration not stated) | 10.7 | > 50 | 134 | 12.5 (≈ 5.37 µg/mL) | > 50 | 12.3 | > 50 | 11.2 | > 50 | > 50 | 6.83 | 3.58 | 116 | 14.2 | > 50 | > 50 | 11 | > 50
12 | COc1cccc2c1C(=O)c1c(O)c3c(c(O)c1C2=O)C[C@@](O)(C(=O)CO)C[C@@H]3O[C@H]1C[C@H](N)[C@H](O)[C@H](C)O1 [DOXORUBICIN] |  |  |  |  |  | 0.7 |  | 0.363 |  |  | 0.55 | 2 | 0.01 | 0.8 |  |  | 0.72 | 
13 | Cc1ccc(N(C(=O)c2ccc[nH]2)C(C(=O)NC2CCCCC2)c2ccccc2)c(C)c1 (configuration not stated) | 10.8 | > 50 | 68.2 | 6.25 (≈ 2.68 µg/mL) | > 50 | 32.5 | > 50 | 9.3 | > 50 | > 50 | 15.5 | 15.5 | 33.2 | 10.9 | > 50 | > 50 | 13.5 | > 50
14 | Cc1ccc(N(C(=O)c2sc(C)nc2C)C(C(=O)NC2CCCCC2)c2ccc[nH]2)cc1 (configuration not stated) | 5.3 | > 50 | 33.4 | 6.25 (≈ 2.82 µg/mL) | > 50 | 14.5 | > 50 | 12.7 | > 50 | > 50 | 11.7 | 4.25 | 15.4 | 11.6 | > 50 | > 50 | 6.13 | > 50
15 | Cc1ccc(N(C(=O)c2sc(C)nc2C)C(C(=O)NC2CCCCC2)c2c(F)cc(Br)cc2F)cc1 (configuration not stated) | 8.5 | > 50 | 53.3 | 6.25 (≈ 3.6 µg/mL) | > 50 | 10.8 | > 50 | 12.6 | > 50 | > 50 | 11.7 | 4.08 | 58.3 | 22.2 | > 50 | > 50 | 4.79 | > 50
16 | CCc1ccccc1N(C(=O)c1sc(C)nc1C)C(C(=O)NC1CCCCC1)c1ccccc1 (configuration not stated) |  | > 50 |  | 25 (≈ 11.9 µg/mL) | > 50 |  | > 50 |  | > 50 | > 50 |  |  |  |  | > 50 | > 50 |  | > 50
17 | Cc1nc(C)c(C(=O)N(c2c(C)cccc2C)C(C(=O)NC2CCCCC2)c2ccccc2)s1 (configuration not stated) |  | > 50 |  | 25 (≈ 11.9 µg/mL) | > 50 |  | > 50 |  | > 50 | > 50 |  |  |  |  | > 50 | > 50 |  | > 50
18 | Cc1cccc(C)c1N(C(=O)c1ccc[nH]1)C(C(=O)NC1CCCCC1)c1ccccc1 (configuration not stated) |  | > 50 |  | 25 (≈ 10.7 µg/mL) | > 50 |  | > 50 |  | > 50 | > 50 |  |  |  |  | > 50 | > 50 |  | > 50
19 | Cc1cccc(N(C(=O)c2ccncc2)C(C(=O)NC2CCCCC2)c2ccncc2)c1C (configuration not stated) |  | > 50 |  | 25 (≈ 11.1 µg/mL) | > 50 |  | > 50 |  | > 50 | > 50 |  |  |  |  | > 50 | > 50 |  | > 50
